{"source": "patent US8530386B2", "about": "“Herbicidal compositions for tolerant or resistant sugar beet crops” (Bayer Intellectual Property GmbH, priority 1998, dated 2013)", "assay_type_in_all_cases": "in vivo", "key": {"transgenic sugar beet [1]": {"system": "transgenic sugar beet", "assay": "Damage to transgenic sugar beet, greenhouse experiment (Table 3)", "set-up": "scale not given here", "conditions": "application in the 4-5-leaf stage"}, "Galium aparine [2]": {"system": "Galium aparine", "assay": "Herbicidal action, field trial (Table 7)", "conditions": "application in the 4-5-leaf stage, scoring 26 days after application", "experimental": "(§1) Transgenic sugar beet plants with resistance to one or more herbicides (A) were grown together with typical weed plants in the open in 2×5 m plots under natural field conditions; alternatively, the weed population established naturally while the sugar beet plants grew. Treatment with the compositions according to the invention and, for control purposes, with separate application of the active ingredients of the components alone, was carried out under standard conditions with a plot sprayer at an application rate of 200-300 liters of water per hectare in parallel trials in accordance with the scheme of Table 1, i.e. pre-sowing/pre-emergence, post-sowing/pre-emergence or post-emergence at the early, medium or late stage.\n(§2) […] Damage and development of all aerial plant organs was recorded. The scoring was done using a percentage scale (100% activity=all plants dead, 50% activity=50% of the plants and green plant organs dead, 0% activity=no discernible effect=like control plot). The score values of in each case 4 plots were averaged.\n(§3) In contrast, the sugar beet plants suffered no, or only negligible, damage as a consequence of the treatment with the herbicidal compositions."}, "Avena fatua": {"system": "Avena fatua", "assay": "Herbicidal action and selectivity in sugar beet crop, field trial (Table 5)", "conditions": "application in the 3-5-leaf stage, scoring 4 weeks after application", "experimental": "as §1\n(§4) At 2, 4, 6 and 8 week intervals after application, the herbicidal activity of the active ingredients or active ingredient mixtures were scored visually by comparing the treated plots with untreated control plots. Damage and development of all aerial plant organs was recorded. The scoring was done using a percentage scale (100% activity=all plants dead, 50% activity=50% of the plants and green plant organs dead, 0% activity=no discernible effect=like control plot). The score values of in each case 4 plots were averaged.\nas §3"}, "transgenic sugar beet [3]": {"system": "transgenic sugar beet", "assay": "Damage to transgenic sugar beet, field trial (Table 5)", "conditions": "application in the 3-5-leaf stage", "experimental": "as §1, §4, §3"}, "Galium aparine [4]": {"system": "Galium aparine", "assay": "Herbicidal action in sugar beet crop, greenhouse experiment (Table 3)", "conditions": "application in the 4-5-leaf stage, scoring 3 weeks after application", "description": "Seeds or rhizomes of monocotyledonous and dicotyledonous weeds are placed in sandy loam soil in cardboard pots, covered with soil and grown in the greenhouse under good growth conditions. […] The compositions according to the invention, which are formulated as wettable powders or as emulsion concentrates, are sprayed at various dosages onto the green plant organs at an application rate of 600 to 800 l of water per ha (converted). After the experimental plants have remained in the greenhouse for approx. 3 to 4 weeks under optimal growth conditions, the effect of the preparations is scored visually in comparison with untreated controls. The compositions according to the invention also have a good herbicidal activity against a broad spectrum of economically important grass weeds and broad-leaved weeds when applied post-emergence.\nIn this context, activities of the combinations according to the invention are frequently observed which exceed the formal total of the activities when the herbicides are applied individually. The observed values show, at suitably low dosages, an activity of the combinations which exceed Colby's expected values (cf. scoring in Example 1)."}, "transgenic sugar beet [5]": {"system": "transgenic sugar beet", "assay": "Damage to transgenic sugar beet, field trial (Table 4)", "conditions": "application in 3-leaf stage", "experimental": "as §1, §4, §3"}, "transgenic sugar beet [6]": {"system": "transgenic sugar beet", "assay": "Damage to transgenic sugar beet - field trial (Table 2)", "conditions": "application in 2-4-leaf stage", "experimental": "as §1, §4, §3"}, "Amaranthus retroflexus": {"system": "Amaranthus retroflexus", "assay": "Herbicidal action, field trial, sequential treatment (Table 8)", "conditions": "dose 200 g A.S./ha; post-emergence at the 2-3-leaf stage; scoring 22 days after application", "experimental": "as §1, §2, §3"}, "Setaria viridis": {"system": "Setaria viridis", "assay": "Herbicidal action, field trial, sequential treatment (Table 8)", "conditions": "dose 200 g A.S./ha; post-emergence at the 2-3-leaf stage; scoring 22 days after application", "experimental": "as §1, §2, §3"}, "Galium aparine [7]": {"system": "Galium aparine", "assay": "Herbicidal action, field trial (Table 6)", "conditions": "application in the 3-5-leaf stage, scoring 4 weeks after application", "experimental": "as §1, §4, §3"}}, "note": "Counter-ions that a name gives are not always drawn.", "data": [{"compound": "Cc1nnc(-c2ccccc2)c(=O)n1N", "note": "[(B1.4), 4-amino-4,5-dihydro-3-methyl-6-phenyl-1,2,4-triazin-5-one]", "values": [{"measurement": "Damage to transgenic sugar beet", "setting": "transgenic sugar beet [1]; dose 750 g A.S./ha", "value": 0}, {"measurement": "Damage to transgenic sugar beet", "setting": "transgenic sugar beet [1]; dose 1500 g A.S./ha", "value": 0}, {"measurement": "Damage to transgenic sugar beet", "setting": "transgenic sugar beet [1]; dose 3000 g A.S./ha", "value": 0}]}, {"compound": "CC(C)N.O=C(O)CNCP(=O)(O)O", "note": "[(A2.2), monoisopropylammonium salt of glyphosate]", "values": [{"measurement": "Herbicidal action in % against Galium aparine", "setting": "Galium aparine [2]; dose 125 g A.S./ha", "value": 10, "unit": "%"}, {"measurement": "Herbicidal action in % against Galium aparine", "setting": "Galium aparine [2]; dose 250 g A.S./ha", "value": 40, "unit": "%"}, {"measurement": "Herbicidal action in % against Galium aparine", "setting": "Galium aparine [2]; dose 500 g A.S./ha", "value": 60, "unit": "%"}, {"measurement": "Herbicidal action in % against Galium aparine", "setting": "Galium aparine [2]; dose 1000 g A.S./ha", "value": 85, "unit": "%"}]}, {"compound": "O=C(O)c1nc(Cl)ccc1Cl", "note": "[(B2.4), 3,6-dichloropyridine-2-carboxylic acid]", "values": [{"measurement": "Damage to transgenic sugar beet", "setting": "transgenic sugar beet [1]; dose 50 g A.S./ha", "value": 0}, {"measurement": "Damage to transgenic sugar beet", "setting": "transgenic sugar beet [1]; dose 100 g A.S./ha", "value": 0}, {"measurement": "Damage to transgenic sugar beet", "setting": "transgenic sugar beet [1]; dose 200 g A.S./ha", "value": 0}]}, {"compound": "COC(=O)[C@@H](C)Oc1ccc(Oc2ncc(C(F)(F)F)cc2Cl)cc1", "note": "[(B3.4), haloxyfop-P-methyl]", "values": [{"measurement": "Herbicidal action in % against Avena fatua", "setting": "Avena fatua; dose 15 g A.S./ha", "value": 20, "unit": "%"}, {"measurement": "Herbicidal action in % against Avena fatua", "setting": "Avena fatua; dose 30 g A.S./ha", "value": 63, "unit": "%"}, {"measurement": "Damage to transgenic sugar beet", "setting": "transgenic sugar beet [3]; dose 15 g A.S./ha", "value": 0}, {"measurement": "Damage to transgenic sugar beet", "setting": "transgenic sugar beet [3]; dose 30 g A.S./ha", "value": 0}]}, {"compound": "COC(=O)Nc1cccc(NC(=O)Oc2cccc(C)c2)c1", "note": "[(B2.2), 3-methylphenyl N-[3-(methoxycarbonylamino)phenyl]carbamate]", "values": [{"measurement": "Herbicidal action in % against Galium aparine", "setting": "Galium aparine [2]; dose 500 g A.S./ha", "value": 20, "unit": "%"}, {"measurement": "Herbicidal action in % against Galium aparine", "setting": "Galium aparine [2]; dose 1000 g A.S./ha", "value": 30, "unit": "%"}, {"measurement": "Herbicidal action in % against Galium aparine", "setting": "Galium aparine [2]; dose 2000 g A.S./ha", "value": 30, "unit": "%"}, {"measurement": "Damage to transgenic sugar beet", "setting": "transgenic sugar beet [1]; dose 500 g A.S./ha", "value": 0}, {"measurement": "Damage to transgenic sugar beet", "setting": "transgenic sugar beet [1]; dose 1000 g A.S./ha", "value": 0}, {"measurement": "Damage to transgenic sugar beet", "setting": "transgenic sugar beet [1]; dose 2000 g A.S./ha", "value": 0}, {"measurement": "Herbicidal action in % against Galium aparine", "setting": "Galium aparine [4]; dose 500 g A.S./ha", "value": 20, "unit": "%"}, {"measurement": "Herbicidal action in % against Galium aparine", "setting": "Galium aparine [4]; dose 1000 g A.S./ha", "value": 30, "unit": "%"}, {"measurement": "Herbicidal action in % against Galium aparine", "setting": "Galium aparine [4]; dose 2000 g A.S./ha", "value": 30, "unit": "%"}]}, {"compound": "CCC/C(=N\\OCC)C1=C(O)CC(CC(C)SCC)CC1=O", "note": "(centres unmarked) [(B4.1), (E,Z)-2-(1-ethoxyiminobutyl)-5-[2-(ethylthio)propyl]-3-hydroxycyclohex-2-enone]", "values": [{"measurement": "Damage to transgenic sugar beet", "setting": "transgenic sugar beet [5]; dose 105 g A.S./ha", "value": 0}, {"measurement": "Damage to transgenic sugar beet", "setting": "transgenic sugar beet [5]; dose 210 g A.S./ha", "value": 0}, {"measurement": "Damage to transgenic sugar beet", "setting": "transgenic sugar beet [5]; dose 315 g A.S./ha", "value": 0}]}, {"compound": "CP(=O)(O)CCC(N)C(=O)O", "note": "(centres unmarked) [(A1.2), glufosinate monoammonium salt]", "values": [{"measurement": "Damage to transgenic sugar beet", "setting": "transgenic sugar beet [6]; dose 37.5 g A.S./ha", "value": 0}, {"measurement": "Damage to transgenic sugar beet", "setting": "transgenic sugar beet [6]; dose 75 g A.S./ha", "value": 0}, {"measurement": "Damage to transgenic sugar beet", "setting": "transgenic sugar beet [6]; dose 150 g A.S./ha", "value": 0}, {"measurement": "Damage to transgenic sugar beet", "setting": "transgenic sugar beet [6]; dose 300 g A.S./ha", "value": 0}, {"measurement": "Herbicidal action in % against Amaranthus retroflexus", "setting": "Amaranthus retroflexus", "value": 55, "unit": "%"}, {"measurement": "Herbicidal action in % against Setaria viridis", "setting": "Setaria viridis", "value": 60, "unit": "%"}, {"measurement": "Damage to transgenic sugar beet", "setting": "transgenic sugar beet [5]; dose 0 g A.S./ha", "value": 0}, {"measurement": "Damage to transgenic sugar beet", "setting": "transgenic sugar beet [5]; dose 10 g A.S./ha", "value": 0}, {"measurement": "Damage to transgenic sugar beet", "setting": "transgenic sugar beet [5]; dose 65 g A.S./ha", "value": 0}, {"measurement": "Damage to transgenic sugar beet", "setting": "transgenic sugar beet [1]; dose 125 g A.S./ha", "value": 0}, {"measurement": "Damage to transgenic sugar beet", "setting": "transgenic sugar beet [1]; dose 250 g A.S./ha", "value": 0}, {"measurement": "Damage to transgenic sugar beet", "setting": "transgenic sugar beet [1]; dose 500 g A.S./ha", "value": 0}, {"measurement": "Herbicidal action in % against Galium aparine", "setting": "Galium aparine [4]; dose 125 g A.S./ha", "value": 45, "unit": "%"}, {"measurement": "Herbicidal action in % against Galium aparine", "setting": "Galium aparine [4]; dose 250 g A.S./ha", "value": 60, "unit": "%"}, {"measurement": "Herbicidal action in % against Galium aparine", "setting": "Galium aparine [4]; dose 500 g A.S./ha", "value": 85, "unit": "%"}, {"measurement": "Herbicidal action in % against Galium aparine", "setting": "Galium aparine [7]; dose 250 g A.S./ha", "value": 20, "unit": "%"}, {"measurement": "Herbicidal action in % against Galium aparine", "setting": "Galium aparine [7]; dose 300 g A.S./ha", "value": 40, "unit": "%"}, {"measurement": "Herbicidal action in % against Galium aparine", "setting": "Galium aparine [7]; dose 600 g A.S./ha", "value": 85, "unit": "%"}, {"measurement": "Damage to transgenic sugar beet", "setting": "transgenic sugar beet [3]; dose 150 g A.S./ha", "value": 0}, {"measurement": "Damage to transgenic sugar beet", "setting": "transgenic sugar beet [3]; dose 300 g A.S./ha", "value": 0}, {"measurement": "Damage to transgenic sugar beet", "setting": "transgenic sugar beet [3]; dose 600 g A.S./ha", "value": 0}]}, {"compound": "CCCC(=NOCC)C1=C(O)CC(C2CCCSC2)CC1=O", "note": "(centres unmarked) [(B4.2), 2-(1-ethoxyiminobuytl)-3-hydroxy-5-thian-3-ylcyclohex-2-enone]", "values": [{"measurement": "Damage to transgenic sugar beet", "setting": "transgenic sugar beet [5]; dose 62.5 g A.S./ha", "value": 0}, {"measurement": "Damage to transgenic sugar beet", "setting": "transgenic sugar beet [5]; dose 125 g A.S./ha", "value": 0}, {"measurement": "Damage to transgenic sugar beet", "setting": "transgenic sugar beet [5]; dose 250 g A.S./ha", "value": 0}]}, {"compound": "CCOC(=O)C(C)Oc1ccc(Oc2nc3ccc(Cl)cc3o2)cc1", "note": "(racemic) [(B3.2), fenoxaprop-ethyl (rac.)]", "values": [{"measurement": "Damage to transgenic sugar beet", "setting": "transgenic sugar beet [3]; dose 15 g A.S./ha", "value": 0}, {"measurement": "Damage to transgenic sugar beet", "setting": "transgenic sugar beet [3]; dose 30 g A.S./ha", "value": 0}, {"measurement": "Damage to transgenic sugar beet", "setting": "transgenic sugar beet [3]; dose 60 g A.S./ha", "value": 0}]}]}
